Read-outs that look alike come from different tables or passages of the source. Where a SMILES comes first, the peptide text is derived from it. The star is where a group is joined. X1 = CC1(C)C(=CC=C2CCCC(C=CC3=[N+](CCCCCC(=O)O)c4ccccc4C3(C)C)=C2*)N(CCCCCC(=O)O)c2ccccc21
Key:
[1] = tested on: H460 tumour-bearing nude mice; experiment: Pharmacokinetic parameters in tumour (DAS2.0); assay type: in vivo, mouse; settings: IV 14 mg/kg; for AUC0→t / AUC0→∞ / CL / MRT(0-t), mean retention time / Tmax / t1/2β, elimination half-life: in tumour, means ± SD n = 3; for AUC0→t: 0–48 h
Protocol: (§1) Animal experiments were performed in accordance with the Guide for the Care and Use of Laboratory Animals and approved by the Institutional Animal Care and Use Committee (IACUC) of the National Center for Nanoscience and Technology (NCNST), China. Female Balb/c nude mice (6–8 weeks, 18–22 g) were purchased from Vital River Laboratory Animal Technology Co. Ltd. H460 cells were subcutaneously implanted into these mice on the right flank. Then the mice were randomly grouped (n = 3). When the tumour grew to a single aspect of about 0.5 cm, we injected the molecules 1, 2 and 3 intravenously in the same dose of 14 mg/kg in PBS solution, respectively. Fluorescence images were measured by a Maestro II in vivo imaging system (CRi) at 1, 2, 4, 6, 8, 12, 24, 48, 72, 96 and 120 h post injection. Further, tumours and other major organs (i.e., heart, liver, spleen, lung and kidney) were collected for ex vivo fluorescence imaging at 48 h post injection. The organ biodistribution of the 1, 2 and 3 was examined using H460 xenografts mice. The mice were sacrificed at 2, 4, 8, 12, 24 or 48 h post injection. Finally, all the major organs and tumour were collected, weighed, and homogenized (0.3 mL of lysis buffer per 100 mg of tissues). The homogeneous tissue solutions were obtained for fluorescence imaging by IVIS Spectrum CT. Known concentrations of compound 1, 2 or 3 are used to make the standard curve (concentration from 2.8 to 25.2 μg/mL), the “Predicted R-Squared” value of 0.99. Then we utilized this standard curve to measure the molecule content in each tissue. In addition, EJ xenograft tumour mice model was built, as above described, to validate the generality of the strategy.
Supplementary Table 1︱Pharmacokinetic parameters of intravenously-administered 1, 2 and 3 in […]
Data are presented as means ± SD (n = 3). t1/2β, elimination half -life; CL, plasma clearance; Cmax, maximum concentration; Tmax, peak time ; MRT: mean retention time; AUC(0 -t), area under the 1, 2 and 3 concentration-time curve from time zero to the last quantifiable value; AUC(0 -∞), area und er the 1, 2 and 3 concentration -time curve from time zero to infinity, which represents the total drug exposure over time. h, hour(s).

[2] = tested on: H460 tumour-bearing mice; assay type: in vivo, mouse; settings: IV 14 mg/kg; for retention efficiency in tumour up to 48 h post injection: integrated fluorescence in tumour normalized to 1 h, n = 3, repeated three times
Protocol: as §1
Supplementary Figure 31∣ Representative NIR fluorescence images of H460 tumour-bearing mice after intravenous administration with molecules 1, 2 and 3 (14 mg/kg, n = 3). Images were acquired at 1 h, 4 h, 12 h, 24 h 48 h, 72 h, 96 h and 120 h post injection (p.i.). The yellow circles marked the same size of the tumour region.
(§2) (1 picture or pasted object on this page, not shown here)
Supplementary Figure 32∣ Representative NIR fluorescence images o f H460 tumour-bearing mice after intravenous administrat ed with molecules 1 (14 mg/kg, n = 3) in three groups (In order to test the repeatability of the results, we chose different batches of mice to repeat trials . They were named 1-group, 2-group and 3-group, respectively.). Images were acquired at 1 h, 4 h, 12 h, 24 h 48 h and 72 h post injection (p.i.). All data were obtained by n ormalized fluorescence intensity in tumour. Data are presented as the mean ± s.d. (n= 3).

[3] = tested on: H460 cells; experiment: Flow cytometry labelling ratio of subcultured cells; assay type: cell-based, human; settings: 50 μM, 37 °C, 2 h; for labelling ratio of H460 cells at the third generation: subcultured at 24 h interval
Protocol: Supplementary Figure 24∣Flow cytometry histograms of H460 cells treated with molecule 1, 2 and
3 (50 μM) at 37 °C for 2 h, respectively, and then subcultured for designated generations (a 24 h
interval). The untreated H460 cells were used as the control group.
as §2

[4] = Organ biodistribution from fluorescence of tissue lysates; settings: female, Balb/c nude, mouse, in vivo, iv, 14 mg/kg
Protocol: as §1
Supplementary Figure 35∣ Quantitative analysis of the fluorescence intensity. In order to ensure the accuracy of the results, we added a standard solution in every tested 96 -well plate. The fluorescence property of molecules 1, 2 and 3 were identical. We take molecule 1 as example to illustrate the quantitative analysis. a. The top view of fluorescence images of a serial concentration of molecule 1 by Maestro II. The number from 1 to 11 represented 2.8, 5.6, 8.4, 11.2, 14.0, 16.8, 19.6, 22.4, 25.2, 28.0, 35.0 (μg/mL), respectively. The control group represented PBS buffer. b.
Fluorescence intensity (relative to the background signal) increase d linearly with the concentration […]
as §2
Supplementary Figure 36 ∣ Representative NIR fluorescence images of tissue lysates. The molecules 1, 2 and 3 (14 mg/kg, n = 3) on H460 tumour-bearing mice after intravenous administration in three groups. The mice were sacrificed at 2 h, 4 h, 8 h, 12 h, 24 h or 48 h post injection . […] The homogenous tissue solutions were obtained for fluorescence imaging. […]

[5] = fluorescence of diluted tissue lysates, mean ± s.d. n = 3, read-out: tumour uptake / accumulation efficiency at 48 h post injection

Row | SMILES | AUC0→t [1] | AUC0→∞ [1] | CL [1] | MRT(0-t), mean retention time [1] | Tmax [1] | t1/2β, elimination half-life [1] | retention efficiency in tumour up to 48 h post injection [2] | labelling ratio of H460 cells at the third generation [3] | tissue uptake at 48 h [4, 5] | AUC0–48h in tumour of molecule 1 relative to 2 [1] | AUC0–48h in tumour of molecule 1 relative to 3 [1] | retained tumour signal on the fifth day relative to molecules 2 and 3 [2] | fluorescence signal retained in tumour on the fifth day ([2]; normalized fluorescence intensity in tumour) | labelling ratio of H460 cells at the first generation ([3]; compared to untreated cells) | tissue uptake at 48 h ([4]; fluorescence of tissue lysates, mean ± s.d. n = 3, read-out: liver retention at 48 h post injection)
1 | CSCC[C@H](N)C(=O)N[C@@H](CC(=O)O)C(=O)N[C@@H](CCC(=O)O)C(=O)N[C@@H](CCCCN)C(=O)N[C@@H](C)C(=O)N[C@@H](CCC(N)=O)C(=O)N[C@@H](CCCCN)C(=O)N[C@@H](CC(=O)O)C(=O)N[C@@H](CCC(=O)O)C(=O)N[C@H](C(=O)N[C@@H](CC(=O)O)C(=O)N[C@@H](CCCCN)C(=O)N[C@@H](CC(C)C)C(=O)N[C@H](C(=O)N[C@@H](Cc1ccccc1)C(=O)N[C@@H](Cc1ccccc1)C(=O)N[C@@H](C)C(=O)N[C@@H](CCC(=O)O)C(=O)N[C@@H](CSC1=C(C=CC2=[N+](CCCCCC(=O)O)c3ccccc3C2(C)C)CCCC1=CC=C1N(CCCCCC(=O)O)c2ccccc2C1(C)C)C(=O)NCC(=O)O)C(C)C)C(C)C [molecule 2] (H-MDEKAQKDEVDKLVFFAEC(X1)G-OH; N-terminus assumed) | 12.2 ± 1.9 mg·h/g | 14.1 ± 2.2 mg·h/g | 16.7 ± 2.5 mL/min/kg | 15.2 ± 4.5 h | 3.3 ± 1.2 h | 10.0 ± 1.9 h | less than 10.0% | 6.83% | 4.2 ± 0.1 %ID/g | – | – | – | – | – | –
2 | CC[C@H](C)[C@H](NC(=O)[C@@H]1CCCN1C(=O)[C@@H](NC(=O)[C@H](C)N)C(C)C)C(=O)N[C@@H](C)C(=O)N[C@@H](CCC(N)=O)C(=O)N[C@@H](CCCCN)C(=O)N[C@@H](CC(=O)O)C(=O)N[C@@H](CCC(=O)O)C(=O)N[C@H](C(=O)N[C@@H](CC(=O)O)C(=O)N[C@@H](CCCCN)C(=O)N[C@@H](CC(C)C)C(=O)N[C@H](C(=O)N[C@@H](Cc1ccccc1)C(=O)N[C@@H](Cc1ccccc1)C(=O)N[C@@H](C)C(=O)N[C@@H](CCC(=O)O)C(=O)N[C@@H](CSC1=C(C=CC2=[N+](CCCCCC(=O)O)c3ccccc3C2(C)C)CCCC1=CC=C1N(CCCCCC(=O)O)c2ccccc2C1(C)C)C(=O)NCC(=O)O)C(C)C)C(C)C [molecule 1] (H-AVPIAQKDEVDKLVFFAEC(X1)G-OH) | 71.2 ± 4.7 mg·h/g | 145.9 ± 1.0 mg·h/g | 1.3 ± 0.5 mL/min/kg | 23.4 ± 0.2 h | 4.0 ± 0 h | 69.3 ± 0 h | approximately 22.0% | above 16.4% | 9.2 ± 0.5 %ID/g | six-fold | three-fold | ~2.5 fold | over 16.0% | 100% | 4.1 ± 0.2 %ID/g
3 | CC[C@H](C)[C@H](NC(=O)[C@@H]1CCCN1C(=O)[C@@H](NC(=O)[C@H](C)N)C(C)C)C(=O)N[C@@H](C)C(=O)N[C@@H](CCC(N)=O)C(=O)N[C@@H](CCCCN)C(=O)N[C@@H](CC(=O)O)C(=O)N[C@@H](CCC(=O)O)C(=O)N[C@H](C(=O)N[C@@H](CC(=O)O)C(=O)N[C@@H](CCC(=O)O)C(=O)N[C@@H](CSC1=C(C=CC2=[N+](CCCCCC(=O)O)c3ccccc3C2(C)C)CCCC1=CC=C1N(CCCCCC(=O)O)c2ccccc2C1(C)C)C(=O)NCC(=O)O)C(C)C [molecule 3] (H-AVPIAQKDEVDEC(X1)G-OH; N-terminus assumed) | 26.6 ± 8.9 mg·h/g | 34.6 ± 12.2 mg·h/g | 7.33 ± 2.5 mL/min/kg | 10.7 ± 1.8 h | 6.7 ± 2.3 h | 10.6 ± 2.8 h | less than 10.0% | 3.89% | 5.3 ± 0.8 %ID/g | – | – | – | – | – | –
